Experimental data taken from patent US9447156B2, “Methods and compositions for inhibiting neddylation of proteins” (St. Jude Children's Research Hospital, priority 2011, dated 2016).
Where two headings read alike, the source gives them in different places. Positions of bridges follow the written chain, without caps; N, C: chain ends. Non-standard residues stand in square brackets, D forms with d. Residues, ends and D or L forms follow the SMILES beside them. No end group written: not given here. *: point of attachment. S5 = C=CCCC[C@](C)(N)C(=O)O; For = O=C*

Columns and labels:
hDcn1^P = target: T1, hDcn1^P (Homo sapiens, UniProt Q96GG9); experiment: ITC binding of Ubc12/Ube2f peptides to hDcn1^P; conditions: for ΔH: change in enthalpy; for ΔS: change in entropy
T1 construct: hDcn1^P corresponds to residues 62 to the C-terminal residue 259 of hDcn1; GST (cleaved yes); made in house; host or cells: E. coli BL21(DE3)Gold
T1 sequence (Q96GG9 62-259): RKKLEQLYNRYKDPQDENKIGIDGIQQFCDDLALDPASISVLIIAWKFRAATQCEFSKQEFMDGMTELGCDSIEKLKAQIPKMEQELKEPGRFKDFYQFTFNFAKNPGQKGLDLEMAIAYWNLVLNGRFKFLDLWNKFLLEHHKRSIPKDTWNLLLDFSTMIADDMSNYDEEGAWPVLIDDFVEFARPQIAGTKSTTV
Description: (§1) Protein samples were buffer matched by desalting over a NAP-5 column (GE Healthcare) into 50 mM Hepes, 125 mM NaCl, 1 mM BME, pH 7.0 (ITC buffer). Peptides were dissolved by weight to a final concentration of 10 mM in ITC buffer and diluted further in ITC buffer as required for the experiments. Measurements were performed using a MicroCal ITC200. hDcn1^P or yDcn1^P were placed into the sample cell at a final concentration of 400 μM at 18° C. The peptide ligands (4 mM) were constantly injected (1.5 μl). The interval time between each injection was 3 minutes and the duration of each injection was 3 seconds. For titrations involving hE1 and yE1, proteins were placed into the sample cell at a final concentration of 25 μM at 22° C. Peptide ligands (250 μM) were constantly injected (2.5 μl). The interval time between each injection was three minutes and the duration of each injection was 5 seconds. For hCul1^ctd-Rbx1:hDcn1^P binding, proteins were buffer matched by desalting over a NAP-5 column in 25 mM Tris, 0.1 M NaCl, 1 mM BME, pH 7.6. hCul1^ctd-Rbx1 was placed into the sample cell at a final concentration of 55 μM at 22° C. hDcn1^P (550 μM) was constantly injected (2.5 μl). The interval time between each injection was 3 minutes and the duration of each injection was 5 seconds. Obtained spectra were evaluated using Origin (V 7.0) to determine heats of binding and Kd values.
The affinity of various peptides for hDcn1^P, hDcn2^P, hDcn3^P, hDcn4^P, and hDcn5^P was tested using isothermal titration calorimetry as described in Example 1 and is provided in Table 29.

[1] = target: T2, hE1 for Nedd8 (APPBP1-UBA3) (Homo sapiens, UniProt Q8TBC4); experiment: ITC binding of Ubc12 peptides to hE1; conditions: for Kd / ΔH / ΔS: ITC; for Kd: protein hE1, titrant Ubc12 peptide; for ΔH / ΔS: protein hE1; for ΔH: change in enthalpy; for ΔS: change in entropy
T2 construct: made in house; host or cells: E. coli
T2 sequence (Q8TBC4 22-463 limits assumed): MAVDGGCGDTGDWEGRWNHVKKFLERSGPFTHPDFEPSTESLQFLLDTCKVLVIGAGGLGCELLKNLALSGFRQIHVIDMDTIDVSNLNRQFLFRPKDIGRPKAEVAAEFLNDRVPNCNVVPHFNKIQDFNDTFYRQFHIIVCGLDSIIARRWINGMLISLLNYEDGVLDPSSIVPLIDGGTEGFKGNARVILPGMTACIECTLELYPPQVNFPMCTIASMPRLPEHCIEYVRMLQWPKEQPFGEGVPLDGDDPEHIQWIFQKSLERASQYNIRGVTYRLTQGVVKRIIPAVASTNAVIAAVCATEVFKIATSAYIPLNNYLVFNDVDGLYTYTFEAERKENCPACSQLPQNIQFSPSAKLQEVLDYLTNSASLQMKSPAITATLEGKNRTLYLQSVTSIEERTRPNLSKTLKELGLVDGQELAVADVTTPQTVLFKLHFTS
T2 sequence (Q13564 1-534 partner): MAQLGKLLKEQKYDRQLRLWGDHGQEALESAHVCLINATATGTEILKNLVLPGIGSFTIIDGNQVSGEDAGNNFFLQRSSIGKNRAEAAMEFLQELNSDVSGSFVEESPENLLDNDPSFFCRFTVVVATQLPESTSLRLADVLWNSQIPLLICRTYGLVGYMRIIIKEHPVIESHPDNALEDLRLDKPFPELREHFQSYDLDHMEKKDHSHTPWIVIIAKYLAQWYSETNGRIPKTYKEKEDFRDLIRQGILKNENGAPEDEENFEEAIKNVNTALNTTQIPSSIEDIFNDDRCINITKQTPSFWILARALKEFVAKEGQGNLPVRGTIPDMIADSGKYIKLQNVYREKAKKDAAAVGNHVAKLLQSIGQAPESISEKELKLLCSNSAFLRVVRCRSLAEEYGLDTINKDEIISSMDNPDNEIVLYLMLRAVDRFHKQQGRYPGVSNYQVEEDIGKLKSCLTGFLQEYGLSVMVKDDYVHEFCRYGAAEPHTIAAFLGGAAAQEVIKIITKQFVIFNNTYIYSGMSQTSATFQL
Description: as §1

[2] = Table 29, peptides with amidated carboxy-terminus, read-out: Binding Kd for hDcn1^P
[3] = protein hDcn1^P, titrant Ubc12 peptide, read-out: Kd

Compound | Kd (hDcn1^P; [2]) | ΔH (hDcn1^P; protein hDcn1^P) | ΔS (hDcn1^P; protein hDcn1^P) | Kd [1] | ΔH [1] | ΔS [1] | Kd (hDcn1^P; [3]) | binding to E1 ([1]; data not shown)
MIKLFSLKQQKKEEESAGGTKGSSKK-NH2 [hUbc12^1−26] | > 200000 nM | – | – | – | – | – | – | –
Ac-MIKLFSLKQQKKEEESAGGTKGSSKK-NH2 [Acetyl-hUbc12^1-26] | – | −6,107 cal/mol | 5.84 cal/mol/deg | 943 nM | −9,425 cal/mol | −4.79 cal/mol/deg | – | –
CC[C@H](C)[C@H](NC(=O)[C@H](CCSC)NC(C)=O)C(=O)N[C@@H](CCCCN)C(=O)N[C@@H](CC(C)C)C(=O)N[C@@]1(C)CCCC=CCCC[C@@](C)(C(=O)N[C@@H](CCC(N)=O)C(=O)N[C@@H](CCCCN)C(=O)N[C@@H](CCCCN)C(N)=O)NC(=O)[C@H](CCCCN)NC(=O)[C@H](CC(C)C)NC(=O)[C@H](CO)NC1=O [Acetyl-hUbc12^1-12 (5:9Staple)] (Ac-MIKL[S5]SLK[S5]QKK-NH2; staple 5-9) | – | −3,386 cal/mol | 19.3 cal/mol/deg | – | – | – | – | –
CCCC[C@H](N)C(=O)N[C@H](C(=O)N[C@@H](CCCCN)C(=O)N[C@@H](CC(C)C)C(=O)N[C@@H](Cc1ccccc1)C(=O)N[C@@H](CO)C(=O)N[C@@H](CC(C)C)C(=O)N[C@@H](CCCCN)C(=O)N[C@@H](CCC(N)=O)C(=O)N[C@@H](CCC(N)=O)C(=O)N[C@@H](CCCCN)C(=O)N[C@@H](CCCCN)C(N)=O)[C@@H](C)CC [hUbc12^1−12 (NorLeu)] | > 400000 nM | – | – | – | – | – | – | –
CC[C@H](C)[C@H](NC(=O)[C@H](CCSC)NC=O)C(=O)N[C@@H](CCCCN)C(=O)N[C@@H](CC(C)C)C(=O)N[C@@H](Cc1ccccc1)C(=O)N[C@@H](CO)C(=O)N[C@@H](CC(C)C)C(=O)N[C@@H](CCCCN)C(=O)N[C@@H](CCC(N)=O)C(=O)N[C@@H](CCC(N)=O)C(=O)N[C@@H](CCCCN)C(=O)N[C@@H](CCCCN)C(=O)N[C@@H](CCC(=O)O)C(=O)N[C@@H](CCC(=O)O)C(=O)N[C@@H](CCC(=O)O)C(=O)N[C@@H](CO)C(=O)N[C@@H](C)C(=O)NCC(=O)NCC(=O)N[C@H](C(=O)N[C@@H](CCCCN)C(=O)NCC(=O)N[C@@H](CO)C(=O)N[C@@H](CO)C(=O)N[C@@H](CCCCN)C(=O)N[C@@H](CCCCN)C(N)=O)[C@@H](C)O [Formyl-hUbcU^126] (For-MIKLFSLKQQKKEEESAGGTKGSSKK-NH2) | – | −4,893 cal/mol | 5.79 cal/mol/deg | – | – | – | – | –
Ac-IKLFSLKQQKKEEESAGGTKGSSKK-NH2 [Acetyl-hUbc12^2-26] | – | 1,719 cal/mol | 24.1 cal/mol/deg | 390 nM | −8,899 cal/mol | −1.24 cal/mol/deg | > 100000 nM | –
CC[C@H](C)[C@H](NC(=O)[C@H](CCSC)NC(C)=O)C(=O)N[C@@H](CCCCN)C(=O)N[C@@H](CC(C)C)C(=O)N[C@@H](Cc1ccccc1)C(=O)N[C@@H](CO)C(=O)N[C@@H](CC(C)C)C(=O)N[C@@H](CCCCN)C(=O)N[C@@H](CCC(N)=O)C(=O)N[C@@H](CCC(N)=O)C(=O)N[C@@H](CCCCN)C(=O)N[C@@H](CCCCN)C(N)=O [Acetyl-hUbc12^1-12] | – | −4,992 cal/mol | 8.79 cal/mol/deg | 630 nM | −11,490 cal/mol | −11.0 cal/mol/deg | – | –
Ac-IKLFSLKQQKKEEESAGGTKGSSKK-NH2 [hUbc12^Ac−2−26] | > 150000 nM | – | – | – | – | – | – | –
H-MIKLFSLKQQKKEEESAGGTKGSSKK-NH2 [hUbc12^1-26] | – | 1,259 cal/mol | 22.2 cal/mol/deg | 585 nM | −8,881 cal/mol | −1.99 cal/mol/deg | > 130000 nM | –
AcetylhUbc12^Ac1-12(5,9 Staple): Acetylated hUbc12 1-12 with Phe5 and Gln9 replaced with (S)-2-(4'-pentenyl)alanine, side-chains covalently linked (Ac-MIKL[S5]SLK[S5]QKK-NH2; staple 5-9) | – | – | – | – | – | – | – | no longer binds E1
